Laboratory results: patent US20230219925A1, “BENZO FIVE-MEMBERED NITROGEN HETEROCYCLIC COMPOUND AND APPLICATION THEREOF” (GUANGZHOU INSTITUTES OF BIOMEDICINE AND HEALTH CHINESE …, priority 2020, published 2023)
Like-named read-outs stand apart in the source and are kept apart here.

Legend:
[1] = target: T1, RORγ (Homo sapiens, UniProt P51449); assay: luciferase dual reporter gene assay, Gal4-RORγLBD in 293T cells
T1 sequence (P51449 269-508 limits assumed): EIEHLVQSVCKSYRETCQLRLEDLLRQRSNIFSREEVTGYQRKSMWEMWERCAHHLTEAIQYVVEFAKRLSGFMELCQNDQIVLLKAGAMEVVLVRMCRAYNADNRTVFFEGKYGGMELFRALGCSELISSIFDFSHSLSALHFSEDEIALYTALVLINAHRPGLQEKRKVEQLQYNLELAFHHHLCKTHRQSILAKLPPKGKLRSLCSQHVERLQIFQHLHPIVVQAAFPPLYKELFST
Experimental: On the day before transfection, cells were prepared in the 96-well plate with a cell density of 1.5×10^4 cells/well. After 24 hours of adherent growth, transient transfection was performed with the transfection reagent Lipo-fectamine 2000 through a method of dual reporter gene co-transfection. The transfection reagent and the plasmids were separately diluted with the Opti-MEM Reagent. Gal4-RORγLBD (25 ng), pG5-luc genes (25 ng) and Renilla (5 ng) were added to each well, and after 24 hours of co-transfection, compounds having different concentrations were added. After 24 hours of incubation, the luciferase dual reporter gene detection assay kit was used for detecting luminescence signals. Three duplicate wells were set for each sample, and IC50 values (half maximal inhibitory concentrations) were calculated by software.

[2] = target: T2, hRORγ (Homo sapiens, UniProt P51449); assay: protein thermal stability shift assay (TSA)
T2 sequence (P51449 1-518): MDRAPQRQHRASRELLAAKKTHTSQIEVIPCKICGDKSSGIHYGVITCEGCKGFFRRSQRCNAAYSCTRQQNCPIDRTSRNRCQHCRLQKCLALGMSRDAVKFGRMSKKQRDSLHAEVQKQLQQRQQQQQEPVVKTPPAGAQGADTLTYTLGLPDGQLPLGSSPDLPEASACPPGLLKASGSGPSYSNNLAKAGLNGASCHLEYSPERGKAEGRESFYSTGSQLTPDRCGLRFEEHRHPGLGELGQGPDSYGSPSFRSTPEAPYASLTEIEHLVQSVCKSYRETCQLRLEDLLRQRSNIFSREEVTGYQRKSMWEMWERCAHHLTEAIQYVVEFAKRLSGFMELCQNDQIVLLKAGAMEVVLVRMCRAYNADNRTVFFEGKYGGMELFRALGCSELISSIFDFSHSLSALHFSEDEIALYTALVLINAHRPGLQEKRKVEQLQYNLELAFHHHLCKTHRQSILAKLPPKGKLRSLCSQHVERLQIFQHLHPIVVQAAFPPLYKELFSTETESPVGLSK

[3] = IC50 (luciferase detection technique), RORγ transcriptional activity, Table 1
[4] = read-out: ΔTm (TSA detection technique), hRORγ 10 μM, compound 200 μM
[5] = read-out: ΔTm (TSA detection technique)

SMILES: CCS(=O)(=O)c1ccc(C(NC(C)=O)C(=O)Nc2ccc(-c3nc4ccc(C)cc4n3[C@@H](C)c3ccc(C)cc3)cc2)cc1 (single isomer, unassigned) [Example 75]
- IC50 [1, 3]: 100 to 1000 nM

SMILES: Cc1ccc2nc(-c3ccc(NS(=O)(=O)c4ccc([N+](=O)[O-])cc4)cc3)sc2c1 [Example 5, N-(4-(6-methylbenzo[d]thiazol-2-yl)phenyl)-4-nitrobenzenesulfonamide]
- ΔTm at 200 µM [2, 4]: < 5 °C
- IC50 [1, 3]: 1000 to 10000 nM

SMILES: Cc1cc(C)c(S(=O)(=O)Nc2ccc(-c3nc4ccc(C)cc4s3)cc2)c(C)c1 [Example 10, 2,4,6-trimethyl-N-(4-(6-methylbenzo[d]thiazol-2-yl)phenyl)benzenesulfonamide]
- ΔTm at 200 µM [2, 4]: > 10 °C
- IC50 [1, 3]: 1000 to 10000 nM

SMILES: CCN1C(=O)c2cccc3c(S(=O)(=O)Nc4ccc(-c5nc6ccc(C)cc6s5)cc4)ccc1c23 [Example 11, 1-ethyl-N-(4-(6-methylbenzo[d]thiazol-2-yl)phenyl)-2-oxo-1,2-dihydrobenzo[cd]indol-6-sulfonamide]
- ΔTm at 200 µM [2, 5]: > 10 °C
- IC50 [1]: 10000 to 100000 nM

SMILES: Cc1ccc(CS(=O)(=O)Nc2ccc(-c3nc4ccc(C)cc4s3)cc2)cc1 [Example 12, N-(4-(6-methylbenzo[d]thiazol-2-yl)phenyl)-1-(p-tolyl)methanesulfonamide]
- ΔTm at 200 µM [2, 4]: > 10 °C
- IC50 [1, 3]: 1000 to 10000 nM

SMILES: Cc1ccc2nc(-c3ccc(NS(=O)(=O)Cc4ccc(C#N)cc4)cc3)sc2c1 [Example 16, 1-(4-cyanophenyl)-N-(4-(6-methylbenzo[d]thiazol-2-yl)phenyl)methanesulfonamide]
- ΔTm at 200 µM [2, 4]: > 10 °C
- IC50 [1, 3]: 1000 to 10000 nM

SMILES: Cc1ccc2nc(-c3ccc(NS(=O)(=O)Cc4cccc(N)c4)cc3)sc2c1 [Example 24, 1-(3-aminophenyl)-N-(4-(6-methylbenzo[d]thiazol-2-yl)phenyl)methane sulfonamide]
- ΔTm at 200 µM [2, 4]: > 10 °C
- IC50 [1, 3]: 10000 to 100000 nM

SMILES: CCCCCCC(=O)Nc1ccc(-c2nc3ccc(C)cc3s2)cc1 [Example 26, N-(4-(6-methylbenzo[d]thiazol-2-yl)phenyl)heptanamide]
- ΔTm at 200 µM [2, 4]: > 10 °C
- IC50 [1, 3]: < 100 nM

SMILES: Cc1ccc(CC(=O)Nc2ccc(-c3nc4ccc(C)cc4s3)cc2)cc1 [Example 27, N-(4-(6-methylbenzo[d]thiazol-2-yl)phenyl)-2-(p-tolyl)acetamide]
- ΔTm at 200 µM [2, 4]: > 10 °C
- IC50 [1, 3]: 10000 to 100000 nM

SMILES: CCS(=O)(=O)c1ccc(CC(=O)Nc2ccc(-c3nc4ccc(C)cc4s3)c(Cl)c2)cc1 [Example 29, N-(3-chloro-4-(6-methylbenzo[d]thiazol-2-yl)phenyl)-2-(4-(ethylsulfonyl)phenyl) acetamide]
- ΔTm at 200 µM [2, 4]: 5 to 10 °C
- IC50 [1, 3]: 100 to 1000 nM

SMILES: CCS(=O)(=O)c1ccc(CC(=O)Nc2ccc(-c3nc4ccc(F)cc4s3)cc2)cc1 [Example 30, 2-(4-(ethylsulfonyl)phenyl)-N-(4-(6-fluorobenzo[d]thiazol-2-yl)phenyl)acetamide]
- ΔTm at 200 µM [2, 4]: 5 to 10 °C
- IC50 [1, 3]: 1000 to 10000 nM

SMILES: CCS(=O)(=O)c1ccc(CC(=O)Nc2ccc(-c3nc4ccc(OC)cc4s3)cc2)cc1 [Example 31, 2-(4-(ethylsulfonyl)phenyl)-N-(4-(6-methoxybenzo[d]thiazol-2-yl)phenyl) acetamide]
- ΔTm at 200 µM [2, 4]: 5 to 10 °C
- IC50 [1, 3]: 10000 to 100000 nM

SMILES: CCS(=O)(=O)c1ccc(CC(=O)Nc2ccc(-c3nc4ccc(C)cc4n3Cc3ccc(C#N)cc3)cc2)cc1 [Example 49, N-(4-(1-(4-cyanobenzyl)-6-methyl-1H-benzo[d]imidazol-2-yl)phenyl)-2-(4-(ethylsulfonyl)phenyl)acetamide]
- ΔTm at 200 µM [2, 4]: 5 to 10 °C
- IC50 [1, 3]: < 100 nM

SMILES: CCS(=O)(=O)c1ccc(CC(=O)Nc2ccc(-c3nc4ccc(Cl)cc4n3Cc3ccccc3)cc2)cc1 [Example 52]
- ΔTm at 200 µM [2, 4]: < 5 °C
- IC50 [1, 3]: < 100 nM

SMILES: CCS(=O)(=O)c1ccc(CC(=O)Nc2ccc(-c3nc4cc(Cl)ccc4n3Cc3ccccc3)cc2)cc1 [Example 53]
- ΔTm at 200 µM [2, 4]: 5 to 10 °C
- IC50 [1, 3]: < 100 nM

SMILES: CCS(=O)(=O)c1ccc(CC(=O)Nc2ccc(-c3nc4ccc(C(=O)NC5CCCC5)cc4n3[C@H](C)c3ccc(C)cc3)cc2)cc1 [Example 70, (R)—N-cyclopentyl-2-(4-(2-(4-(ethylsulfonyl)phenyl)acetylamino)phenyl)-1-(1-(p-tolyl)ethyl)-1H-benzo[d]imidazol-6-formamide]
- ΔTm at 200 µM [2, 4]: 5 to 10 °C
- IC50 [1, 3]: < 100 nM

SMILES: CCS(=O)(=O)c1ccc(CC(=O)Nc2ccc(-c3nc4cc(C(=O)NC5CCCC5)ccc4n3[C@H](C)c3ccc(C)cc3)cc2)cc1 [Example 72, (R)—N-cyclopentyl-2-(4-(2-(4-(ethylsulfonyl)phenyl)acetylamino)phenyl)-1-(1-(p-tolyl)ethyl)-1H-benzo[d]imidazol-5-formamide]
- ΔTm at 200 µM [2, 4]: 5 to 10 °C
- IC50 [1, 3]: < 100 nM

SMILES: CCS(=O)(=O)c1ccc(C(NC(C)=O)C(=O)Nc2ccc(-c3nc4ccc(C)cc4n3[C@@H](C)c3ccc(C)cc3)cc2)cc1 (stereo partly drawn) [Example 73, 2-acetylamino-2-(4-(ethylsulfonyl)phenyl)-N-(4-(6-methyl-1-((S)-1-(p-tolyl)ethyl)-1H-benzo[d]imidazol-2-yl)phenyl)acetamide]
- ΔTm at 200 µM [2, 4]: < 5 °C
- IC50 [1, 3]: < 100 nM

SMILES: CCCCCn1c(-c2ccc(NC(=O)C(NC(C)=O)c3ccc(S(=O)(=O)CC)cc3)cc2)nc2ccc(C)cc21 (centres unmarked) [Example 76, 2-acetylamino-2-(4-(ethylsulfonyl)phenyl)-N-(4-(6-methyl-1-pentyl-1H-benzo[d]imidazol-2-yl)phenyl)acetamide]
- ΔTm at 200 µM [2, 4]: < 5 °C
- IC50 [1, 3]: < 100 nM

SMILES: CCS(=O)(=O)c1ccc(C(NC(C)=O)C(=O)Nc2ccc(-c3nc4ccc(C)cc4n3[C@H](C)c3ccc(C)cc3)cc2)cc1 (stereo partly drawn) [Example 77, 2-acetylamino-2-(4-(ethylsulfonyl)phenyl)-N-(4-(6-methyl-1-((R)-1-(p-tolyl)ethyl)-1H-benzo[d]imidazopyridin-2-yl)phenyl)acetamide]
- ΔTm at 200 µM [2, 4]: < 5 °C
- IC50 [1, 3]: < 100 nM

SMILES: CCS(=O)(=O)c1ccc(C(NC(C)=O)C(=O)Nc2ccc(-c3nc4cc(C(=O)NC(C)C)ccc4n3[C@H](C)c3ccc(C)cc3)cc2)cc1 (stereo partly drawn) [Example 78, 2-(4-(2-acetylamino-2-(4-(ethylsulfonyl)phenyl)acetylamino)phenyl)-N-isopropyl-1-((R)-1-(p-tolyl)ethyl)-1H-benzo[d]imidazol-5-formamide]
- ΔTm at 200 µM [2, 4]: 5 to 10 °C
- IC50 [1, 3]: 1000 to 10000 nM

SMILES: CCS(=O)(=O)c1ccc(C(NC(C)=O)C(=O)Nc2ccc(-c3nc4cc(C(=O)NC(C)C)ccc4n3[C@@H](C)c3ccc(C)cc3)cc2)cc1 (stereo partly drawn) [Example 79, 2-(4-(2-acetylamino-2-(4-(ethylsulfonyl)phenyl)acetylamino)phenyl)-N-isopropyl-1-((S)-1-(p-tolyl)ethyl)-1H-benzo[d]imidazol-5-formamide]
- ΔTm at 200 µM [2, 4]: 5 to 10 °C
- IC50 [1, 3]: 1000 to 10000 nM

SMILES: CCS(=O)(=O)c1ccc(C(NC(C)=O)C(=O)Nc2ccc(-c3nc4ccc(C)cc4n3[C@@H](C)c3ccc(C)cc3)nc2)cc1 (stereo partly drawn) [Example 80, 2-acetylamino-2-(4-(ethylsulfonyl)phenyl)-N-(6-(6-methyl-1-((S)-1-(p-tolyl)ethyl)-1H-benzo[d]imidazol-2-yl)pyridin-3-yl)acetamide]
- ΔTm at 200 µM [2, 5]: < 5 °C
- IC50 [1]: < 100 nM

SMILES: CCCCCn1c(-c2ccc(NC(=O)C(NC(C)=O)c3ccc(S(=O)(=O)CC)cc3)cn2)nc2ccc(C)cc21 (centres unmarked) [Example 81, 2-acetylamino-2-(4-(ethylsulfonyl)phenyl)-N-(6-(6-methyl-1-pentyl-1H-benzo[d]imidazol-2-yl)pyridin-3-yl)acetamide]
- ΔTm at 200 µM [2, 5]: < 5 °C
- IC50 [1]: < 100 nM

SMILES: CCS(=O)(=O)c1ccc(C(NC(C)=O)C(=O)Nc2ccc(-c3nc4ccc(C)cc4n3[C@H](C)c3ccc(C)cc3)nc2)cc1 (stereo partly drawn) [Example 82, 2-acetylamino-2-(4-(ethylsulfonyl)phenyl)-N-(6-(6-methyl-1-((R)-1-(p-tolyl)ethyl)-1H-benzo[d]imidazol-2-yl)pyridin-3-yl)acetamide]
- ΔTm at 200 µM [2, 5]: < 5 °C
- IC50 [1]: < 100 nM

SMILES: CCS(=O)(=O)c1ccc(C(NC(C)=O)C(=O)Nc2ccc(-c3nc4cc(C(=O)NC(C)C)ccc4n3[C@H](C)c3ccc(C)cc3)nc2)cc1 (stereo partly drawn) [Example 83, 2-(5-(2-acetylamino-2-(4-(ethylsulfonyl)phenyl)acetylamino)pyridin-2-yl)-N-isopropyl-1-((R)-1-(p-tolyl)ethyl)-1H-benzo[d]imidazol-5-formamide]
- ΔTm at 200 µM [2, 4]: < 5 °C
- IC50 [1, 3]: 1000 to 10000 nM

SMILES: CCS(=O)(=O)c1ccc(C(NC(C)=O)C(=O)Nc2ccc(-c3nc4cc(C(=O)NC(C)C)ccc4n3[C@@H](C)c3ccc(C)cc3)nc2)cc1 (stereo partly drawn) [Example 84, 2-(5-(2-acetylamino-2-(4-(ethylsulfonyl)phenyl)acetylamino)pyridin-2-yl)-N-isopropyl-1-((S)-1-(p-tolyl)ethyl)-1H-benzo[d]imidazol-5-formamide]
- ΔTm at 200 µM [2, 4]: 5 to 10 °C
- IC50 [1, 3]: 1000 to 10000 nM
